Results published in patent publication US11319322B2, “Substituted aryl ether compound, preparation method thereof, pharmaceutical composition and use thereof” (Xiamen University, priority 2017, dated 2022).

Columns and labels:
Type in all cases: cell-based
CCDC6-RET-BaF3 = molecular target: T1, CCDC6-RET-BaF3 (Homo sapiens, UniProt P07949); experiment: Growth inhibition of CCDC6-RET-BaF3 cells stably transfected with kinase (MTS); settings: 48 h, read-out: CCDC6-RET (IC50/nM)
T1 construct: fused on or other part: Q16204 (Coiled-coil domain-containing protein 6)
Summary of the method: (§1)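 BaF3 cells stably expressing CCDC6-RET or KIF5B-RET, or parental BaF3, 2×10^4 cells/well, treated 48 h at 37 °C with 8-point 1:3 dilutions from 10 μM (0.1% DMSO). MTS/PES added 1–4 h, OD490 read; inhibition versus DMSO and blank gave IC50.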

wild-type BaF3 = experiment: Growth inhibition of wild-type BaF3 cells, broad-spectrum toxicity (MTS); settings: Mus musculus, 48 h, read-out: WT Ba/F3 (IC50/nM)
Procedure: Growth inhibitory activity of compounds on cell lines stably transfected with kinase
The activity of compounds against kinase RET is evaluated by their effect of inhibiting growth of cell lines stably transfected with kinase CCDC6-RET-BaF3, KIF5B-RET-BaF3, and wild-type BaF3 (Proc. Natl. Acad. Sci. USA., 2006, 103, 3153-8.). The growth of the cell lines stably transfected with kinase CCDC6-RET-BaF3, KIF5B-RET-BaF3 depends on their kinase activity. If a compound can inhibit the activity of the kinase RET per se or the activity of the RET signaling pathway, the compound can inhibit the growth of BaF3 cells stably transfected with kinase. […] Therefore, a larger ratio between IC50 of a compound to wild-type BaF3 and IC50 of the compound to the cell lines stably transfected with kinase CCDC6-RET-BaF3, KIF5B-RET-BaF3 indicates better targeting.
The specific test method is given as follows:
1) Medium: DMEM (Dulbecco's modified eagle medium) or RPMI 1640 (containing 10% fetal bovine serum, 100 μg/mL ampicillin, 100 μg/mL streptomycin).
2) Reagents: MTS reaction solution (containing 2 mg/mL of MTS [3-(4,5-dimethylthiazol-2-yl)-5-(3-carboxymethoxyphenyl)-2-(4-sulfophenyl)-2H-tetrazolium, inner Salt]; 100 μg/mL PES (phenazine […])).
3) Compound test: cells stably transfected with kinase (CCDC6-RET-BaF3, KIF5B-RET-BaF3) or wild-type BaF3 cells (2×10^4 cells/well) were incubated into a 96-well culture plate, the volume of cell culture fluid was 90 μL, and then 10 μL of the compound at each gradient concentration was added (the highest concentration was 10 μM, which was diluted stepwise by ⅓, and 8 concentration points were set in total; the system contained 0.1% DMSO (dimethyl sulfoxide)). The cell plate with uniformly mixed compound was cultured in a cell culture incubator (37° C.; 5% CO2) for 48 h, then 20 μL of MTS reaction solution was added, uniformly mixed and incubated in the cell culture incubator (37° C.; 5% CO2) for 1-4 hr, OD values at 490 nm were measured by a microplate reader (VARIOSKAN FLASH, Thermo). Three parallels were set in each group of experiments, with 0.1% (a final concentration) DMSO as a negative control, and a medium without cells or compounds as a blank control. The cell growth inhibition rate was calculated by the following formula: Cell growth inhibition rate %=1−(ODexperimental group−ODblank group)/(ODnegative group−ODblank group)×100%
4) IC50 calculation: The semi-inhibitory concentration of the compound acting on cell growth was calculated using GradPad Prism 5 software according to the measured cell growth inhibition rate.

KIF5B-RET-BaF3 = molecular target: T2, KIF5B-RET-BaF3 (Homo sapiens, UniProt P07949); experiment: Growth inhibition of KIF5B-RET-BaF3 cells stably transfected with kinase (MTS); settings: 48 h, read-out: KIF5B-RET (IC50/nM)
T2 construct: fused on or other part: P33176 (Kinesin-1 heavy chain)
Summary of the method: as §1

T2 sequence (P07949 whole entry, change not shown, the tested form may be a part): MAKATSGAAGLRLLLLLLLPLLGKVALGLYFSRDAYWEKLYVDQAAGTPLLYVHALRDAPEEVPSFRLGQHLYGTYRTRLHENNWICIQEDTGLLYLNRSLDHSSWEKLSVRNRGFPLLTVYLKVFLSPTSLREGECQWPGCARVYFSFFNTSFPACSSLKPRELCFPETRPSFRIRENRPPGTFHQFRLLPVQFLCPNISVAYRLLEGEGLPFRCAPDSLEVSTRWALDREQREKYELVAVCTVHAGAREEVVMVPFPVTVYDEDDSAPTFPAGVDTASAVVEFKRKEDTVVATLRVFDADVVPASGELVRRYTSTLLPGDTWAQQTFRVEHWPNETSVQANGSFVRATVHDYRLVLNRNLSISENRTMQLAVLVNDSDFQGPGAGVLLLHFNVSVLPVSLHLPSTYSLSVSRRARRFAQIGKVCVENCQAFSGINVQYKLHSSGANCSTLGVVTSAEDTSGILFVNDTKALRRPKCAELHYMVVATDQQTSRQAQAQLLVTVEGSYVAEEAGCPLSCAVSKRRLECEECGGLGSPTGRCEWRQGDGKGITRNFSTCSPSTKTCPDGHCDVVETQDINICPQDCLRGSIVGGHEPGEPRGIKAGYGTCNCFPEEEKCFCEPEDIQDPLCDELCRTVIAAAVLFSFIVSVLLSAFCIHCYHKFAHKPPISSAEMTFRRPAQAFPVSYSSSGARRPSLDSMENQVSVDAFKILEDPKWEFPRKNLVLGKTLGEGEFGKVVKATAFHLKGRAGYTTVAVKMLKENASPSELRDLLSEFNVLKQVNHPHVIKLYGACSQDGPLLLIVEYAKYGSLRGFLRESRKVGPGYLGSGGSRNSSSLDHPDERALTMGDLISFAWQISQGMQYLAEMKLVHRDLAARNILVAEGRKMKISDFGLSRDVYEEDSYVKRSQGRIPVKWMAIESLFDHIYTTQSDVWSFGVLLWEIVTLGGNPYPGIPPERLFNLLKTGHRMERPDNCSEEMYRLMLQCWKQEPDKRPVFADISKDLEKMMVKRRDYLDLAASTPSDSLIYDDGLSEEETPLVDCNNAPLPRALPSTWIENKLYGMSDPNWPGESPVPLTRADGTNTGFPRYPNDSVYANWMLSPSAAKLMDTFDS
T1 sequence (P07949 whole entry, change not shown, the tested form may be a part): as above

Row | SMILES | GI50 (CCDC6-RET-BaF3) [nM] | IC50 (wild-type BaF3) [nM] | GI50 (KIF5B-RET-BaF3) [nM]
1 | Cc1ccc(C(=O)Nc2cc(CN3CCN(C)CC3)cc(C(F)(F)F)c2)cc1Oc1nc(-c2cccnc2)nc2cc[nH]c12 [III-q-1] | 1330 | 1430 | 1540
2 | Cc1ccc(C(=O)Nc2ccc(CN3CCN(C)CC3)c(C(F)(F)F)c2)cc1Oc1nc(-c2cccc(O)c2)nc2cc[nH]c12 [III-m-7] | 1410 | 4330 | 2350
3 | Cc1ccc(C(=O)Nc2ccc(CN3CCN(C)CC3)c(C(F)(F)F)c2)cc1Oc1nc(-c2ccncc2)nc2[nH]ncc12 [II-m-21] | 73.4 | 4780 | 240
4 | Cc1ccc(C(=O)Nc2ccc(CN3CCN(C)CC3)c(C(F)(F)F)c2)cc1Oc1nc(-c2ccc(O)cc2)nc2ccn(C)c12 [III-m-16] | 3670 | 4360 | 4420
5 | CN1CCN(Cc2ccc(NC(=O)c3cc(Oc4nc(-c5cccnc5)nc5cc[nH]c45)ccc3Cl)cc2C(F)(F)F)CC1 [III-o-1] | 2150 | 1630 | 1550
6 | Cc1ccc(C(=O)Nc2ccc(CN3CCN(C)CC3)c(C(F)(F)F)c2)cc1Oc1nc(-c2ccc(Cl)cc2)nc2cc[nH]c12 [III-m-6] | 3770 | 2790 | 3950
7 | Cc1ccc(C(=O)Nc2ccc(CN3CCN(C)CC3)c(C(F)(F)F)c2)cc1Oc1cc(-c2ccncc2)nc2[nH]ccc12 [V-m-2] | 1350 | 905 | 978
8 | Cc1ccc(Oc2nc(-c3ccc(N)cc3)nc3ccn(C)c23)cc1NC(=O)c1ccc(CN2CCN(C)CC2)c(C(F)(F)F)c1 [III-j-16] | 2040 | 2280 | 1470
9 | CN1CCN(Cc2ccc(NC(=O)c3cccc(Oc4cc(-c5cccnc5)nc5c4ccn5C)c3)cc2C(F)(F)F)CC1 [V-I-3] | 587 | 1240 | 595
10 | CN1CCN(Cc2ccc(C(=O)Nc3cc(Oc4nc(-c5ccc(O)cc5)nc5cc[nH]c45)ccc3Cl)cc2C(F)(F)F)CC1 [III-k-9] | 1190 | 1650 | 1490
11 | CN1CCN(Cc2ccc(C(=O)Nc3cc(Oc4nc(-c5ccncc5)nc5[nH]ncc45)ccc3Cl)cc2C(F)(F)F)CC1 [II-k-4] | 37.7 | > 10000 | 104
12 | Cc1ccc(Oc2nc(-c3ccc(N)cc3)nc3c2ncn3C)cc1NC(=O)c1ccc(CN2CCN(C)CC2)c(C(F)(F)F)c1 [I-j-5] | 1880 | 4200 | 2370
13 | CN1CCN(Cc2ccc(NC(=O)c3cccc(Oc4cc(-c5ccncc5)nc5c4ccn5C)c3)cc2C(F)(F)F)CC1 [V-I-4] | 337 | 1420 | 143
14 | Cc1ccc(C(=O)Nc2ccc(CN3CCN(C)CC3)c(C(F)(F)F)c2)cc1Oc1cc(-c2cccnc2)nc2c1ccn2C [V-m-3] | 1170 | 3370 | 613
15 | CN1CCN(Cc2ccc(NC(=O)c3cccc(Oc4nc(-c5ccncc5)nc5[nH]cnc45)c3)cc2C(F)(F)F)CC1 [I-l-1] | 476 | > 10000 | 1950
16 | Cc1ccc(Oc2nc(-c3cccnc3)nc3ccn(C)c23)cc1C(=O)Nc1cc(CN2CCN(C)CC2)cc(C(F)(F)F)c1 [III-r-3] | 3770 | 3650 | 2720
17 | Cc1ccc(NC(=O)c2ccc(CN3CCN(C)CC3)c(C(F)(F)F)c2)cc1Oc1nc(-c2cccnc2)nc2ccsc12 [VI-i-1] | 1950 | 1530 | 1470
18 | CN1CCN(Cc2ccc(C(=O)Nc3cc(Oc4nc(-c5cccnc5)nc5[nH]ncc45)ccc3Cl)cc2C(F)(F)F)CC1 [II-k-3] | 567 | 1340 | 1350
